The compounds below were run against T1, Interleukin-1 receptor-associated kinase 4 (Homo sapiens, UniProt Q9NWZ3) (assay: Kinase Assay: The kinase activity of IRAK-4 is determined by its ability to catalyze the phosphorylation of a fluorescent polypeptide substrate. The extent of phosphorylation is measured using the IMAP technology (Molecular Devices) where the phosphorylated fluorescent substrate binds to the large M(III)-based nanoparticles which reduces the rotational speed of the substrate and thus increases its fluorescent polarization (FP). 20 μl reaction mixture contains 10 mM TriHCl, pH 7.2, 0.5 nM GST tagged IRAK-4 (SignalChem), 100 nM fluorescent peptide substrate (RP7030, Molecular Devices), 100 μM ATP, 1 mM DTT, 1 mM MgCl2, and 0.01% Tween 20. The reaction is initiated by the addition of ATP. After incubation for 30 minutes at 25° C., 60 μl of Progressive IMAP Reagent (Molecular Devices) is added to stop the reaction. Change in RP7030's FP is determined by a FP reader (Analyst HT, LH, BioSystems).).
T1 sequence (Q9NWZ3 whole entry): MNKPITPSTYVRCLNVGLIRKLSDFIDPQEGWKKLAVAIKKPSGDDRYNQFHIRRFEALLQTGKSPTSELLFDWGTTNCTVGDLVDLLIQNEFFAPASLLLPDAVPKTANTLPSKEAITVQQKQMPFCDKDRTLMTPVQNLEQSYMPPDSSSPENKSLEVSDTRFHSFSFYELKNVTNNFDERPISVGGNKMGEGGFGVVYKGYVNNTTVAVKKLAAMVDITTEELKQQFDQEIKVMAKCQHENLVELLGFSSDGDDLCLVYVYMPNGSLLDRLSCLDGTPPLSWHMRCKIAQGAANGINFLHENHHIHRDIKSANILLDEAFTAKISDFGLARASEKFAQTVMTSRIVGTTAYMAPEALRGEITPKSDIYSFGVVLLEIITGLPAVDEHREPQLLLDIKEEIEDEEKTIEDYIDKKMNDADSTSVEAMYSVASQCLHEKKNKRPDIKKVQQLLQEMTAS

Row | SMILES | IC50
1 | CS(=O)(=O)N1CCC(c2cc(NC(=O)c3cnn4cccnc34)n(-c3ccccc3)n2)CC1 | < 1 µM
2 | CNC(C)c1ccc(-n2nc(C3CCN(S(C)(=O)=O)CC3)cc2NC(=O)c2cnn3cccnc23)nc1 (configuration not stated) | < 1 µM
3 | Cc1ccc(-n2nc(C3CCN(C4CNC4)CC3)cc2NC(=O)c2cnn3cccnc23)cc1 | < 1 µM
4 | CC(=O)N1CCC(N2CCC(c3cc(NC(=O)c4cnn5cccnc45)n(-c4ccc(C)cc4)n3)CC2)CC1 | < 0.1 µM
5 | Cc1ccc(-n2nc(C3CCCN(Cc4cccnc4)C3)cc2NC(=O)c2cnn3cccnc23)cc1 (configuration not stated) | < 1 µM
6 | COc1ccc(CN2CCC(c3cc(NC(=O)c4cnn5cccnc45)n(-c4ccc(C)cc4)n3)CC2)cn1 | < 1 µM
7 | Cc1ccc(-n2nc(C3CCCN(Cc4ccn[nH]4)C3)cc2NC(=O)c2cnn3cccnc23)cc1 (configuration not stated) | < 0.1 µM
8 | Cc1ccc(-n2nc(C3CCN(S(C)(=O)=O)C3)cc2NC(=O)c2cnn3cccnc23)cc1 (configuration not stated) | < 1 µM
9 | Cc1ccc(-n2nc(-c3ccnc(CN4CCCCC4)c3)cc2NC(=O)c2cnn3cccnc23)cc1 | < 0.1 µM
10 | Cc1ccc(-n2nc(C3CCN(C(C)C(C)C)CC3)cc2NC(=O)c2cnn3cccnc23)cc1 (configuration not stated) | < 1 µM
11 | Cc1ccc(-n2nc(C3CCCN(Cc4cnc(N(C)C)s4)C3)cc2NC(=O)c2cnn3cccnc23)cc1 (configuration not stated) | < 1 µM
12 | Cc1ccc(-n2nc(C3CCN(C(C)c4cccc(F)n4)CC3)cc2NC(=O)c2cnn3cccnc23)cc1 (configuration not stated) | < 1 µM
13 | CS(=O)(=O)N1CCC(c2cc(NC(=O)c3cnn4cccnc34)n(-c3ccc(CN)cn3)n2)CC1 | < 0.1 µM
14 | Cc1ccc(-n2nc(C3CCN(C(C)C(=O)N4CCCCC4)CC3)cc2NC(=O)c2cnn3cccnc23)cc1 (configuration not stated) | < 1 µM
15 | CCOC(=O)N1CCC(N2CCC(c3cc(NC(=O)c4cnn5cccnc45)n(-c4ccc(C)cc4)n3)CC2)CC1 | < 0.1 µM
16 | Cc1ccc(-n2nc(C3CCN(S(C)(=O)=O)CC3)cc2NC(=O)c2cnn3cc(Br)cnc23)nc1 | < 0.1 µM
17 | COc1ccc(-n2nc(C3CCNCC3)cc2NC(=O)c2cnn3cc(C4CC4)cnc23)cc1 | < 1 µM
18 | Cc1ccc(-n2nc(C3CCCN(Cc4ncco4)C3)cc2NC(=O)c2cnn3cccnc23)cc1 (configuration not stated) | < 1 µM
19 | Cc1cnc(-n2nc(C3CCNCC3)cc2NC(=O)c2cnn3cccnc23)nc1 | > 1 µM
20 | Cc1ccc(-n2nc(C3CCCN(Cc4ccccn4)C3)cc2NC(=O)c2cnn3cccnc23)cc1 (configuration not stated) | < 1 µM
21 | CCn1nccc1CN1CCCC(c2cc(NC(=O)c3cnn4cccnc34)n(-c3ccc(C)cc3)n2)C1 (configuration not stated) | < 1 µM
22 | Cc1ccc(-n2nc(C3CCCN(Cc4ccncc4)C3)cc2NC(=O)c2cnn3cccnc23)cc1 (configuration not stated) | < 1 µM
23 | Cc1ccc(-n2nc(C3CCN(S(C)(=O)=O)CC3)cc2NC(=O)c2cnn3cc(Br)cnc23)cc1 | < 1 µM

More lines, now with the values ahead:

Row | IC50 | SMILES
24 | < 1 µM | Cc1ccc(-n2nc(-c3cncc(N4CCN(C)CC4)c3)cc2NC(=O)c2cnn3cccnc23)cc1
25 | < 0.1 µM | Cc1ccc(-n2nc(-c3ccc(S(=O)(=O)N4CCOCC4)cc3)cc2NC(=O)c2cnn3cccnc23)cc1
26 | < 1 µM | Cc1ccc(-n2nc(C3CCN(C)CC3)cc2NC(=O)c2cnn3cccnc23)c(F)c1
27 | < 1 µM | COc1ncc(CN2CCCC(c3cc(NC(=O)c4cnn5cccnc45)n(-c4ccc(C)cc4)n3)C2)cn1 (configuration not stated)
28 | < 0.1 µM | Cc1ccc(-n2nc(C3CCN(C4CCC(C(F)(F)F)CC4)CC3)cc2NC(=O)c2cnn3cccnc23)cc1 (configuration not stated)
29 | < 1 µM | COc1ccc(-n2nc(C3CCN(S(C)(=O)=O)CC3)cc2NC(=O)c2cnn3cccnc23)nc1
30 | < 1 µM | Cc1ccc(-n2nc(C3CCCN(Cc4cn[nH]c4)C3)cc2NC(=O)c2cnn3cccnc23)cc1 (configuration not stated)
31 | < 1 µM | Cc1ccc(-n2nc(C3CCCN(Cc4cccnc4F)C3)cc2NC(=O)c2cnn3cccnc23)cc1 (configuration not stated)
32 | < 0.1 µM | Cc1ccc(-n2nc(C3CCCN(Cc4cccc5c4CNC5=O)C3)cc2NC(=O)c2cnn3cccnc23)cc1 (configuration not stated)
33 | < 1 µM | Cc1ccc(-n2nc(C3CCCN(CC4CCOC4)C3)cc2NC(=O)c2cnn3cccnc23)cc1 (configuration not stated)
34 | < 0.1 µM | Cc1ccc(-n2nc(C3CCN(CC(C)C)CC3)cc2NC(=O)c2cnn3cccnc23)nc1
35 | < 1 µM | COc1ccc(CN2CCCC(c3cc(NC(=O)c4cnn5cccnc45)n(-c4ccc(C)cc4)n3)C2)cn1 (configuration not stated)
36 | < 1 µM | Cc1ccc(-n2nc(C3CCCN(Cc4ccc(F)cn4)C3)cc2NC(=O)c2cnn3cccnc23)cc1 (configuration not stated)
37 | < 0.1 µM | Cc1ccc(-n2nc(C3CCCN(Cc4ccc(S(C)(=O)=O)cc4)C3)cc2NC(=O)c2cnn3cccnc23)cc1 (configuration not stated)
38 | < 0.1 µM | C#Cc1cnc2c(C(=O)Nc3cc(C4CCN(S(C)(=O)=O)CC4)nn3-c3ccc(C)cn3)cnn2c1
39 | < 1 µM | Cc1ccc(-n2nc(C3CCCN(Cc4ccc5c(c4)C(=O)NC5)C3)cc2NC(=O)c2cnn3cccnc23)cc1 (configuration not stated)
40 | < 0.1 µM | Cc1ccc(-n2nc(C3CCN(C(C)C(=O)N4CCCC4)CC3)cc2NC(=O)c2cnn3cccnc23)cc1 (configuration not stated)
41 | < 1 µM | Cc1ccc(-n2nc(C3CCN(C4CCN(C5CC5)CC4)CC3)cc2NC(=O)c2cnn3cccnc23)cc1
42 | > 1 µM | Cc1cnc(-n2nc(C3CCN(S(C)(=O)=O)CC3)cc2NC(=O)c2cnn3cccnc23)cn1
43 | < 0.1 µM | O=C(Nc1cc(C2CCN(C3CCC3)CC2)nn1-c1ccc(C2CC2)cn1)c1cnn2cccnc12
44 | < 1 µM | Cc1ccc(-n2nc(C3CCN(S(C)(=O)=O)CC3)cc2NC(=O)c2cnn3cc(C)cnc23)cc1
45 | < 0.1 µM | Cc1ccc(-n2nc(C3CCN(S(=O)(=O)C4CC4)CC3)cc2NC(=O)c2cnn3cccnc23)nc1
46 | < 0.1 µM | CS(=O)(=O)N1CCC(c2cc(NC(=O)c3cnn4cccnc34)n(-c3ccc(CO)cn3)n2)CC1
47 | < 1 µM | CS(=O)(=O)N1CCC(c2cc(NC(=O)c3cnn4cccnc34)n(CCN)n2)CC1

Reference: ChEMBL document CHEMBL3886319, “Amidopyrazole inhibitors of interleukin receptor-associated kinases” (2015)
